Non-standard residues stand in square brackets, D forms with d. Residues, ends and D or L forms follow the SMILES beside them. *: point of attachment. X1 = OC[C@H]1O[C@@H](O[C@H]2[C@H](O)[C@@H](O)[C@H](*)O[C@@H]2CO)[C@H](O)[C@@H](O)[C@H]1O
Experiments:
[1] = system: thermal nociception; settings: rhesus monkeys; i.m.; cited from earlier work
[2] = system: apomorphine-induced overshoot in movement; settings: reserpine-treated akinesia rats; cited from earlier work
[3] = rhesus monkeys; i.m. injection; cited from earlier work
[4] = system: allodynia; settings: rhesus monkeys; i.m.; cited from earlier work
[5] = system: δ-opioid receptor; settings: cited from earlier work
[6] = system: μ-opioid receptor; settings: cited from earlier work
[7] = assay type: in vivo, rat

CC(C)C[C@H](NC(=O)[C@H](Cc1ccccc1)NC(=O)CNC(=O)[C@H](NC(=O)[C@@H](N)Cc1ccc(O)cc1)[C@H](C)O)C(=O)N[C@@H](CO[C@@H]1O[C@H](CO)[C@@H](O[C@@H]2O[C@H](CO)[C@H](O)[C@H](O)[C@H]2O)[C@H](O)[C@H]1O)C(N)=O [MMP-2200, Tyr-D-Thr-Gly-Phe-Leu-Ser(β-O-Glc)-CONH2] (H-Y[dT]GFLS(X1)-NH2; N-terminus assumed)
effect in tail flick model of thermal nociception [1]: not very effective
apomorphine-induced overshoot in movement [2]: reversed
CNS distribution [3]: very limited
anti-allodynic effects [4]: comparable to morphine
affinity for δ-opioid receptor [5]: nanomolar
affinity for μ-opioid receptor [6]: nanomolar
MMP-2200 concentration in DLS reached within 10 minutes ([7]; rat, systemic administration (i.p.), highlights): nM range
effect of MMP-2200 injection on endogenous leu-ENK level in DLS ([7]; rats, MMP-2200 10 mg/kg i.p., 80 min, repeated measures ANOVA p = 0.8, n = 5): unchanged
